Measured values: patent publication US7718677B2, “Methods and compositions for reduction of side effects of therapeutic treatments” (priority 2007, dated 2010)
Read-outs that look alike come from different tables or passages of the source.

What was measured:
[1] = nicotine in Gatorade up to 650 μg/ml
Protocol: Nicotine treatment: All monkeys (n=7) were then given a drinking solution for 3 weeks consisting of commercially available orange Gatorade® to mask nicotine's bitter taste (FIG. 1). The control group (n=4) was continued on Gatorade® only, while nicotine (free base) was added to the Gatorade of the treated group (n=3). Nicotine dosing was started at 50 μg/ml for 1 week, 150 μg/ml for 1 week, with the concentration increased by 150 μg increments/week over the next few weeks, up to 650 μg/ml (FIG. 1).

[2] = tested on: 6-hydroxydopamine-lesioned rats; settings: for L-dopa-induced AIMs, time course: L-dopa 8 then 12 mg/kg ip, ANOVA P<0.001; for L-dopa-induced AIMs, crossover to nicotine: rats initially without nicotine then given nicotine
Protocol: Animals. Experiments were performed using male Sprague-Dawley rats (initial weight 250 g) purchased from Charles River Laboratories (Gilroy, Calif.). They were housed 2 per cage under a 12-12 h light-dark cycle in a temperature-controlled room with free access to food and water. Three to four days after arrival, the rats were unilaterally lesioned with 6-hydroxydopamine as previously described (Cenci et al., 1998 Eur J Neurosci 10:2694-2706.; Cenci et al., 2002 Nat Rev Neurosci 3:574-579). During the lesioning procedure the rats were maintained under isofluorane anesthesia (2%). They were placed in a Kopf stereotaxic instrument and burr holes drilled through the skull at the following coordinates relative to the Bregma and dural surface: (1) anteroposterior, −4.4; lateral, 1.2; ventral, 7.8; tooth bar at −2.4; (2) anteroposterior, −4.0; lateral, 0.75; ventral, 8.0; tooth bar at +3.4 (Cenci et al., 1998 Eur J Neurosci 10:2694-2706.; Cenci et al., 2002 Nat Rev Neurosci 3:574-579). 6-Hydroxydopamine was dissolved in 0.02% ascorbic acid/saline at a concentration of 3 ug/ul. Two μl was stereotaxically injected at each of these sites for a total of […] into the right ascending dopamine fiber bundle. Infusion of 6-hydroxydopamine into the target area was over a 2-min period, with the cannula maintained at the site of injection for a further 2 min. All procedures conformed to the NIH Guide for the Care and Use of Laboratory Animals and were approved by the Institutional Animal Care and Use Committee.
Behavioral testing. Two and three weeks after lesioning, rats were tested for rotational behavior in an automated behavioral measurement apparatus (ROTOMAX, AccuScan Instruments Inc. Columbus, Ohio, USA). Each rat was placed in a cylindrical glass chamber for 30 min for acclimatization, after which amphetamine (4.0 mg/kg ip) was administered. The behavior was monitored for an additional 90 min, with rats making at least 100 ipsilateral turns used for further study.
Nicotine treatment. When the behavioral testing was completed, rats were treated with nicotine via the drinking water that yields an intermittent dosing regimen or via minipump that provides a constant level of nicotine. For administration via the drinking water, rats were first provided with a solution containing 1% saccharin (Sigma Chemical Co., St. Louis, Mo.) to mask the bitter taste of nicotine. After 2-3 days of acclimation, nicotine (free base, Sigma Chemical Co., St. Louis, Mo.) was added to the saccharin-containing drinking solution of the treated group (pH 7.0). Nicotine was initially given at a concentration of 25 μg/ml nicotine for 2 days.
In a separate series of experiments, rats were given nicotine continuously via Alzet minipumps (model 2004-200 μl), which secrete nicotine for 28 days. These were subcutaneously implanted according to the manufacturer's instruction. Pumps were filled with either sterilized water or nicotine base in water to deliver 2 mg/kg/d.
L-dopa treatment. Three weeks after initiation of the 50 ug/ml nicotine dose, the rats received single daily intraperitoneal injections of 8 mg/kg L-dopa methyl ester plus 15 mg/kg benserazide (both from Sigma Chemical Co., St. Louis, Mo.) (Cenci et al., 1998 Eur J Neurosci 10:2694-2706.; Cenci et al., 2002 Nat Rev Neurosci 3:574-579). After 3 weeks of daily L-dopa dosing, abnormal involuntary movements (AIMs) were quantified. These included (1) axial dystonia, contralateral twisted posturing of the neck and upper body; (2) orolingual dyskinesia, stereotyped jaw movements and contralateral tongue protrusion; and (3) forelimb dyskinesia, repetitive rhythmic jerks or dystonic posturing of the contralateral forelimb and/or grabbing movements of the contralateral paw (Cenci et al., 1998 Eur J Neurosci 10:2694-2706.; Cenci et al., 2002 Nat Rev Neurosci 3:574-579; Carta et al., 2006 Neurochem 96:1718-1727).

CN1CCCC1c1cccnc1 (stereo not drawn) [Nicotine, S-3-(1-methyl-2-pyrrolidinyl)pyridine]
effects on body weight or fluid intake [1]: no significant effects | individual AIM components (total, axial, oral, forelimb) ([2]; constant nicotine 2 mg/kg/d via minipump vs no nicotine, FIG. 15): reduced | L-dopa-induced AIMs, time course ([2]; continuous nicotine 2 mg/kg/d via minipump, FIG. 14): significant effect | AIMs development after removal of nicotine ([2]; drinking water, rats initially on nicotine then given saccharin, FIG. 13): increase | L-dopa-induced AIMs, crossover to nicotine ([2]; drinking water, FIG. 13): reduced | L-dopa-induced AIMs, time course ([2]; intermittent nicotine 50 μg/ml in drinking water, FIG. 11): significant effect | individual AIM components (total, axial, oral, forelimb) ([2]; intermittent nicotine in drinking solution vs saccharin only, FIG. 12): reduced | AIMs development after removal of nicotine ([2]; minipump, rats initially on nicotine then given minipumps containing no nicotine, FIG. 16): increase | L-dopa-induced AIMs, crossover to nicotine ([2]; minipump, FIG. 16): reduced
